These results are taken from patent US7902373B2 (Pfizer Inc, priority 2006, dated 2011).

What is called IC50 is the concentration needed to halve the response being measured.

Each structure is given as a SMILES string.

Chain of human recombinant H-PGDS (O60760 whole entry): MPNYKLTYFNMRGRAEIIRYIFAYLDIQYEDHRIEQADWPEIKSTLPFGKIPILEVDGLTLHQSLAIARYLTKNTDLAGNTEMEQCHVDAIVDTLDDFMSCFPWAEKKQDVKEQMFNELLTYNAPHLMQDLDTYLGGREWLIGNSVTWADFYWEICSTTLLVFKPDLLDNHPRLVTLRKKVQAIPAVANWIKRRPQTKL

This assay concerns the target human recombinant H-PGDS (Homo sapiens, UniProt O60760). In words: Fluorescence intensity h-PGDS TBA enzyme assay. It counts as biochemical. The settings on record: Examples up to 622 (and 3a, 3b).
On to `Nc1nc(N2CCC(NC(=O)c3ccc(-c4cccc(F)c4)nc3)CC2)c2nc[nH]c2n1` [Example 132, N-[1-(2-Amino-9H-purin-6-yl)piperidin-4-yl]-6-(3-fluorophenyl)nicotinamide], for which the IC50 was 0.365 nM.
Then `Cc1nc(N)cc(N2CCC(NC(=O)c3ccc(-c4cccc(F)c4)nc3)CC2)n1` [Example 133, N-[1-(6-Amino-2-methylpyrimidin-4-yl)piperidin-4-yl]-6-(3-fluorophenyl)nicotinamide], with 0.395 nM.
Then `Cc1cnc(C)c(N2CCC(NC(=O)c3ccc(-c4cccc(F)c4)nc3)CC2)n1` [Example 134, N-[1-(3,6-Dimethylpyrazin-2-yl)piperidin-4-yl]-6-(3-fluorophenyl)nicotinamide], with 1.81 nM; and `O=C(NC1CCN(c2ncccc2C(F)(F)F)CC1)c1ccc(-c2cccc(F)c2)nc1` [Example 135, 6-(3-Fluorophenyl)-N-{1-[3-(trifluoromethyl)pyridin-2-yl]piperidin-4-yl}nicotinamide], with 1.47 nM.
Then `O=C(NC1CCN(c2nccc(C(F)(F)F)n2)CC1)c1ccc(-c2cccc(F)c2)nc1` [Example 136, 6-(3-Fluorophenyl)-N-{1-[4-(trifluoromethyl)pyrimidin-2-yl]piperidin-4-yl}nicotinamide], with 5.12 nM; and `O=C(NC1CCN(c2ccc(Cl)cn2)CC1)c1ccc(-c2cccc(F)c2)nc1` [Example 137, N-[1-(5-Chloropyridin-2-yl)piperidin-4-yl]-6-(3-fluorophenyl)nicotinamide], with 1.41 nM; and `O=C(NC1CCN(c2cnc3ccccc3n2)CC1)c1ccc(-c2cccc(F)c2)nc1` [Example 138, 6-(3-Fluorophenyl)-N-(1-quinoxalin-2-ylpiperidin-4-yl)nicotinamide], with 1.23 nM.
As to `O=C(NC1CCN(c2ncccn2)CC1)c1ccc(-c2cccc(F)c2)nc1` [Example 139, 6-(3-Fluorophenyl)-N-(1-pyrimidin-2-ylpiperidin-4-yl)nicotinamide], the IC50 stood at 0.222 nM.
Then `N#Cc1cccnc1N1CCC(NC(=O)c2ccc(-c3cccc(F)c3)nc2)CC1` [Example 140, N-[1-(3-Cyanopyridin-2-yl)piperidin-4-yl]-6-(3-fluorophenyl)nicotinamide], with 0.628 nM; and `Cc1noc(NC(=O)c2cccnc2N2CCC(NC(=O)c3ccc(-c4cccc(F)c4)nc3)CC2)c1C#N` [Example 141, N-(4-Cyano-3-methylisoxazol-5-yl)-2-[4-({[6-(3-fluorophenyl)pyridin-3-yl]carbonyl}amino)piperidin-1-yl]nicotinamide], with 0.721 nM; and `N#Cc1nccnc1N1CCC(NC(=O)c2ccc(-c3cccc(F)c3)nc2)CC1` [Example 142, N-[1-(3-Cyanopyrazin-2-yl)piperidin-4-yl]-6-(3-fluorophenyl)nicotinamide], with 0.33 nM.
`Cc1cc(N(C)C)nc(N2CCC(NC(=O)c3ccc(-c4cccc(F)c4)nc3)CC2)n1` [Example 143, N-{1-[4-(Dimethylamino)-6-methylpyrimidin-2-yl]piperidin-4-yl}-6-(3-fluorophenyl)nicotinamide]: the IC50 was 0.688 nM.
Then `COCc1cc(N2CCC(NC(=O)c3ccc(-c4cccc(F)c4)nc3)CC2)nc(-c2ccccc2)n1` [Example 144, 6-(3-Fluorophenyl)-N-{1-[6-(methoxymethyl)-2-phenylpyrimidin-4-yl]piperidin-4-yl}nicotinamide], with 9.56 nM; and `CCOC(=O)c1cnc(C(F)(F)F)nc1N1CCC(NC(=O)c2ccc(-c3cccc(F)c3)nc2)CC1` [Example 145, Ethyl 4-[4-({[6-(3-fluorophenyl)pyridin-3-yl]carbonyl}amino)piperidin-1-yl]-2-(trifluoromethyl)pyrimidine-5-carboxylate], with 5.94 nM; and `O=C(NC1CCN(c2ncccc2C(=O)N2CCOCC2)CC1)c1ccc(-c2cccc(F)c2)nc1` [Example 146, 6-(3-Fluorophenyl)-N-{1-[3-(morpholin-4-ylcarbonyl)pyridin-2-yl]piperidin-4-yl}nicotinamide], with 1.55 nM.
Then `O=C(NC1CCN(c2ncnc3c2ncn3C2CCCCO2)CC1)c1ccc(-c2cccc(F)c2)nc1` (stereo not drawn) [Example 147, 6-(3-Fluorophenyl)-N-{1-[9-(tetrahydro-2H-pyran-2-yl)-9H-purin-6-yl]piperidin-4-yl}nicotinamide], with 0.737 nM.
Then `NC(=O)c1ccc(C(F)(F)F)nc1N1CCC(NC(=O)c2ccc(-c3cccc(F)c3)nc2)CC1` [Example 148, 2-[4-({[6-(3-Fluorophenyl)pyridin-3-yl]carbonyl}amino)piperidin-1-yl]-6-(trifluoromethyl)nicotinamide], with 1.75 nM; and `O=C(NC1CCN(c2ccc(C(=O)c3ccccn3)cn2)CC1)c1ccc(-c2cccc(F)c2)nc1` [Example 149, 6-(3-Fluorophenyl)-N-{1-[5-(pyridin-2-ylcarbonyl)pyridin-2-yl]piperidin-4-yl}nicotinamide], with 1.82 nM.
For the compound `COC(=O)c1cc(C)nc(N2CCC(NC(=O)c3ccc(-c4cccc(F)c4)nc3)CC2)n1` [Example 150, Methyl 2-[4-({[6-(3-fluorophenyl)pyridin-3-yl]carbonyl}amino)piperidin-1-yl]-6-methylpyrimidine-4-carboxylate], the IC50 turned out to be 1.8 nM.
Then `Nc1cc(N2CCC(NC(=O)c3ccc(-c4cccc(F)c4)nc3)CC2)ncn1` [Example 151, N-[1-(6-Aminopyrmidin-4-yl)piperidin-4-yl]-6-(3-fluorophenyl)nicotinamide], with 0.519 nM; and `O=C(NC1CCN(c2ncccc2C(=O)NCc2ccccc2)CC1)c1ccc(-c2cccc(F)c2)nc1` [Example 152, N-Benzyl-2-[4-({[6-(3-fluorophenyl)pyridin-3-yl]carbonyl}amino)piperidin-1-yl]nicotinamide], with 3.35 nM; and `O=C(NC1CCN(c2nc3ccccc3s2)CC1)c1ccc(-c2cccc(F)c2)nc1` [Example 153, N-[1-(1,3-Benzothiazol-2-yl)piperidin-4-yl]-6-(3-fluorophenyl)nicotinamide], with 1.89 nM.
Then `CCc1cn2nc(N3CCC(NC(=O)c4ccc(-c5cccc(F)c5)nc4)CC3)ccc2n1` [Example 154, N-[1-(2-Ethylimidazo[1,2-b]pyridazin-6-yl)piperidin-4-yl]-6-(3-fluorophenyl)nicotinamide], with 0.96 nM; and `CC(C)c1nccnc1N1CCC(NC(=O)c2ccc(-c3cccc(F)c3)nc2)CC1` [Example 155, 6-(3-Fluorophenyl)-N-[1-(3-isopropylpyrazin-2-yl)piperidin-4-yl]nicotinamide], with 2.3 nM.
As for `CC[C@@H](C)c1nccnc1N1CCC(NC(=O)c2ccc(-c3cccc(F)c3)nc2)CC1` [Example 156, 6-(3-Fluorophenyl)-N-(1-{3-[(1R)-1-methylpropyl]pyrazin-2-yl}piperidin-4-yl)nicotinamide], the IC50 came to 3.15 nM.
Then `CC(C)NC(=O)c1ccc(N2CCC(NC(=O)c3ccc(-c4cccc(F)c4)nc3)CC2)nn1` [Example 157, 6-[4-({[6-(3-Fluorophenyl)pyridin-3-yl]carbonyl}amino)piperidin-1-yl]-N-isopropylpyridazine-3-carboxamide], with 0.678 nM.
Then `O=C(NC1CCN(c2nc3ccccc3o2)CC1)c1ccc(-c2cccc(F)c2)nc1` [Example 158, N-[1-(1,3-Benzoxazol-2-yl)piperidin-4-yl]-6-(3-fluorophenyl)nicotinamide], with 1.58 nM.
